{"source": "ChEMBL document CHEMBL5104116", "about": "“Strategies for targeting the P2Y12 receptor in the central nervous system” (Bioorg Med Chem Lett, 2022)", "key": {"P2Y purinoceptor 12 [1]": {"biological_target": "T1, P2Y purinoceptor 12 (Homo sapiens, UniProt Q9H244)", "T1 sequence (Q9H244 whole entry)": "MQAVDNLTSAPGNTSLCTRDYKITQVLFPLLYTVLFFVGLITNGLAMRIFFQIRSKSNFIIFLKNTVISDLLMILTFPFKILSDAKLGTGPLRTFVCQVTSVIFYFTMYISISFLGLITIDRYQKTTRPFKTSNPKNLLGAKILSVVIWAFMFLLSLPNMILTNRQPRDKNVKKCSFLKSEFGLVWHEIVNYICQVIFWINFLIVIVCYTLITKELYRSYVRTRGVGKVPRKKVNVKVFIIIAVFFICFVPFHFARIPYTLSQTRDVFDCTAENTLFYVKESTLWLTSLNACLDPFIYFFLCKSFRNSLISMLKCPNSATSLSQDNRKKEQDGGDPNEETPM", "experiment": "Inhibition of P2Y12 (unknown origin)"}, "P2Y purinoceptor 12 [2]": {"biological_target": "T1, P2Y purinoceptor 12", "experiment": "Displacement of [3H]-2MesADP from recombinant human P2Y12 transfected in HEK cell membrane assessed as inhibition constant", "type": "cell membranes"}, "P2Y purinoceptor 12 [3]": {"biological_target": "T1, P2Y purinoceptor 12", "experiment": "Displacement of [3H]-2MesADP from human P2Y12 in HEK cell membrane assessed as inhibition constant incubated for 1 hr by scintillation counter method", "type": "cell membranes"}, "P2Y purinoceptor 12 [4]": {"biological_target": "T1, P2Y purinoceptor 12", "experiment": "Displacement of [3H]PSB-0413 from P2Y12 in human platelets assessed as dissociation constant", "type": "cell-based, Platelet"}, "P2Y purinoceptor 12 [5]": {"biological_target": "T1, P2Y purinoceptor 12", "experiment": "Displacement of [33P]-2MeS-ADP from recombinant human P2Y12 transfected in HEK cell membrane assessed as inhibition constant incubated for 1 hr by competitive binding assay", "type": "cell membranes"}, "P2Y purinoceptor 12 [6]": {"biological_target": "T1, P2Y purinoceptor 12", "experiment": "Binding affinity to P2Y12 (unknown origin) assessed as inhibition constant"}}}
{"smiles": "CC(=O)Oc1cc2c(s1)CCN(C(C(=O)C1CC1)c1ccccc1F)C2", "note": "(stereo not drawn)", "values": [{"measurement": "IC50", "setting": "P2Y purinoceptor 12 [1]", "value": 1800, "unit": "nM"}]}
{"smiles": "CSc1nc(N)c2ncn([C@@H]3O[C@H](COP(=O)(O)OP(=O)(O)O)[C@@H](O)[C@H]3O)c2n1", "values": [{"measurement": "Ki", "setting": "P2Y purinoceptor 12 [2]", "value": 32.1, "unit": "nM"}]}
{"smiles": "CCCc1cc2c(N3CCn4c(nnc4C(F)(F)F)C3)nc(OCCF)nc2s1", "values": [{"measurement": "Ki", "setting": "P2Y purinoceptor 12 [3]", "value": 0.3, "unit": "nM"}]}
{"smiles": "[3H]C([3H])C([3H])([3H])CSc1nc(N)c2ncn([C@@H]3O[C@H](COP(=O)(O)OP(=O)(O)O)[C@@H](O)[C@H]3O)c2n1", "values": [{"measurement": "Kd", "setting": "P2Y purinoceptor 12 [4]", "value": 6.5, "unit": "nM"}]}
{"smiles": "NCc1cc2c(N3CCN(C(=O)c4ccc(-c5ccccc5)cc4)CC3)nc(N3CCNC(=O)C3)nc2s1", "values": [{"measurement": "Ki", "setting": "P2Y purinoceptor 12 [5]", "value": 9, "unit": "nM"}]}
{"smiles": "CCCCCOC(=O)N1CCN(C(=O)[C@H](CCC(=O)O)NC(=O)c2cc(N3CCC(COC)CC3)cc(-c3ccccc3)n2)CC1", "values": [{"measurement": "Ki", "setting": "P2Y purinoceptor 12 [6]", "value": 3.5, "unit": "nM"}]}
{"smiles": "COC(=O)[C@H](c1ccccc1Cl)N1CCc2sccc2C1", "note": "[CLOPIDOGREL]", "values": [{"measurement": "IC50", "setting": "P2Y purinoceptor 12 [1]", "value": 2400, "unit": "nM"}]}
{"smiles": "CCCSc1nc(N[C@@H]2C[C@H]2c2ccc(F)c(F)c2)c2nnn([C@@H]3C[C@H](OCCO)[C@@H](O)[C@H]3O)c2n1", "note": "[TICAGRELOR]", "values": [{"measurement": "IC50", "setting": "P2Y purinoceptor 12 [1]", "value": 10, "unit": "nM"}]}
